Measured values as given in patent US8802866B2, “Pyridinylimidazolone derivatives for the inhibition of PI3 kinases” (Merck Patent GmbH, priority 2009, dated 2014).

How the values were obtained:
[1] = biological target: PI3Kalpha (Homo sapiens, UniProt P42336); assay: Biochemical PI3Kalpha assay (neomycin SPA, lipid phosphorylation); conditions: human recombinant GST-PI3K
Summary of the method: (§1)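 Recombinant PI3K incubated with lipid substrate and radioactive ATP for 120 min at room temperature with gentle stirring, then stopped with neomycin-coated PVT-SPA beads, ATP 60 mM and EDTA 6.2 mM in PBS. After 60 min bead binding and centrifugation, radioactive Ptdlns(3)P counted by scintillation.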

[2] = biological target: PI3Kbeta (Homo sapiens, UniProt P42338); assay: Biochemical PI3Kbeta assay (neomycin SPA, lipid phosphorylation); conditions: human recombinant GST-PI3K
Sequence of PI3Kbeta (P42338 whole entry): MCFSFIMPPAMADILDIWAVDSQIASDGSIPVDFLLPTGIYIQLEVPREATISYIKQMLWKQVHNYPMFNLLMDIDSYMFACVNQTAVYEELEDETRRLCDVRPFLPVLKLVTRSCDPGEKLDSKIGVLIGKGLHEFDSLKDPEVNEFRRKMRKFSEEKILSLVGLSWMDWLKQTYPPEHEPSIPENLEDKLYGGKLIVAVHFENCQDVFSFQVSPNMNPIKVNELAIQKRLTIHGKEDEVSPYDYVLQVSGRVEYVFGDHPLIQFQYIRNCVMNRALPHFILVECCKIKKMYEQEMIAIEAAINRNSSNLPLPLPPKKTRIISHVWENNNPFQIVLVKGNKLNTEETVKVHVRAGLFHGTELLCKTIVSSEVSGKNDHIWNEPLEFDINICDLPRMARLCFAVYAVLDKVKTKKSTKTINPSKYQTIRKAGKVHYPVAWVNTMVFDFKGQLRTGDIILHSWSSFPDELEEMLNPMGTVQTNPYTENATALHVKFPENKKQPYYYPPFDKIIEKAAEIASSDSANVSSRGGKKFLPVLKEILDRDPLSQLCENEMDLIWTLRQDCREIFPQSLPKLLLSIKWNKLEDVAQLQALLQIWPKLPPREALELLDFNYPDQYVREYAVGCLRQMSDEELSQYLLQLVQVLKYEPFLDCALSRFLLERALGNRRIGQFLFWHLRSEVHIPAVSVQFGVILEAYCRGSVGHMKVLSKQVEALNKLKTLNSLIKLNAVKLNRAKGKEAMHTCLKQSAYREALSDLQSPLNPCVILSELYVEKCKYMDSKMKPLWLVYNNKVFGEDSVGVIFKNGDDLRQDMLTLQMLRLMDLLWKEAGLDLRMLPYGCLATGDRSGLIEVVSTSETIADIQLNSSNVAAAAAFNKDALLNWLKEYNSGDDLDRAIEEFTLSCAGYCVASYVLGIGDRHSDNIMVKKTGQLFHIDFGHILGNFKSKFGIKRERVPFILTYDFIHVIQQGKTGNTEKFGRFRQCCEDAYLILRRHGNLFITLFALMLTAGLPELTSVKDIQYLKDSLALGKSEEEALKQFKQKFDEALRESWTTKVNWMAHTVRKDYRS
Sequence of PI3Kbeta (P27986 whole entry partner): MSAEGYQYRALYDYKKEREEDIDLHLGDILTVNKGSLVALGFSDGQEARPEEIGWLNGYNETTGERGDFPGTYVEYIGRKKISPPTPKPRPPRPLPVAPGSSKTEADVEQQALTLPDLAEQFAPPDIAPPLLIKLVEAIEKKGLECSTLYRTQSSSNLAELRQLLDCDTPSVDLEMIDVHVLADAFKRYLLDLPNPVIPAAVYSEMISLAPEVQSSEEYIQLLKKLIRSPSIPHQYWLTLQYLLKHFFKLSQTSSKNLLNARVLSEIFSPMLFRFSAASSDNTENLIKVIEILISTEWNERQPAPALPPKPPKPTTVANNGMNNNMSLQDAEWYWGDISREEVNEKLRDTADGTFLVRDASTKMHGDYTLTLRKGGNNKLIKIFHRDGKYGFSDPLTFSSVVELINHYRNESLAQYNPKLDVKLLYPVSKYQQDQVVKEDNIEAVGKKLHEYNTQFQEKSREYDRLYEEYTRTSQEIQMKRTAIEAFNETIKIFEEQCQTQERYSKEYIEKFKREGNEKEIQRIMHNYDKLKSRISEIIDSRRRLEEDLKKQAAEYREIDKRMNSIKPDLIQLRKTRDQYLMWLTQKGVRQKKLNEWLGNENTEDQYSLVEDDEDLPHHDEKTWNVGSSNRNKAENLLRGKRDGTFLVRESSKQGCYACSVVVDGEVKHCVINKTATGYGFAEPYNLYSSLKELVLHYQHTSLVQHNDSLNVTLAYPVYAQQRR
Summary of the method: as §1

[3] = biological target: recombinant PI3Kalpha (shortened form of the catalytic subunit) (Homo sapiens, UniProt P42336); assay: BIACORE PI3K binding assay (SPR); conditions: 25° C.
Sequence of recombinant PI3Kalpha (shortened form of the catalytic subunit) (P42336 151-1068 limits assumed): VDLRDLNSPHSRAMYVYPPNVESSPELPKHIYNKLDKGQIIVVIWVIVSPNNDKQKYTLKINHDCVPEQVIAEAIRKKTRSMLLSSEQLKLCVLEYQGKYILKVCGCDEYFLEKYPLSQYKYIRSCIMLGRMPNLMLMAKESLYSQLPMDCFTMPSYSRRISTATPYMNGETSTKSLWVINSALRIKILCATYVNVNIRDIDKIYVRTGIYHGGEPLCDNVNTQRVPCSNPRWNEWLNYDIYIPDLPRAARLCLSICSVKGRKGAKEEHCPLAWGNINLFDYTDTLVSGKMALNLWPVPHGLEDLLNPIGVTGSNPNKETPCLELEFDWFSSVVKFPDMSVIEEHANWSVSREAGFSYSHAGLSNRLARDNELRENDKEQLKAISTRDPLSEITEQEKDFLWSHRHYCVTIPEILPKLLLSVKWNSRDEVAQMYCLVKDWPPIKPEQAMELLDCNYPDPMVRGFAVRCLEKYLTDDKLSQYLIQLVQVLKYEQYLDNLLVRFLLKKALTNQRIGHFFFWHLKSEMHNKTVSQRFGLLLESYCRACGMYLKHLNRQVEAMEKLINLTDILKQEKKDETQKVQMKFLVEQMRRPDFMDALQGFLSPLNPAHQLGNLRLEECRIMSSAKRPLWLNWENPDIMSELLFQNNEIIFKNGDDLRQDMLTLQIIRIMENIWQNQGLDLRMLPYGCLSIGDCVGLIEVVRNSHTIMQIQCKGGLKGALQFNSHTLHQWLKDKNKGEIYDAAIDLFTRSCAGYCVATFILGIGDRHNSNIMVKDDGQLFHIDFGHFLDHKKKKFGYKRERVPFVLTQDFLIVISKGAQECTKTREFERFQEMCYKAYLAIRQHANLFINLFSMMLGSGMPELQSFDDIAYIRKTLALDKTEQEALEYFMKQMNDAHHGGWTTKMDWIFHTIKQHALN
Summary of the method: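 Contact time was 180 s and dissociation 240 s, in HEPES pH 7.40 buffer with 2% DMSO. Solvent-corrected, double-referenced data were fitted to a 1:1 model with mass transport.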

[4] = system: PI3K-dependent phosphorylation of PKB at Serin 473 in PC3 cells; assay: Cellular PI3K assay (P-S473-PKB Luminex assay in PC3 cells); assay type: cell-based; conditions: Homo sapiens, PC-3, 0.5 h; PC3 cells, 30 min, serum-free, P-S473-PKB; read-out: IC50 (cell)
Summary of the method: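 PC3 cells were exposed for 30 min under serum-free conditions to 7 concentrations of compound, then lysed. Lysates were captured overnight at 4°C on anti-total-PKB Luminex beads and detected with P-S473-PKB antibody plus PE-labelled secondary.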

[5] = biological target: DNA-PK protein complex (Homo sapiens, UniProt P78527); assay: Biochemical DNA-PK assay (FlashPlate)
Summary of the method: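 Streptavidin-coated FlashPlate radiometric kinase assay, stopped with 200 mM EDTA, then wells washed with 0.9% NaCl and bound radioactivity counted. Blank (non-specific reaction) defined with a proprietary kinase inhibitor at 10 μM.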

[6] = biological target: T1, mTOR (Homo sapiens, UniProt P42345); assay: Biochemical mTOR assay (Millipore mTOR assay kit)
T1 construct: purchased Millipore 14-770
T1 sequence (P42345 1362-2549 limits assumed): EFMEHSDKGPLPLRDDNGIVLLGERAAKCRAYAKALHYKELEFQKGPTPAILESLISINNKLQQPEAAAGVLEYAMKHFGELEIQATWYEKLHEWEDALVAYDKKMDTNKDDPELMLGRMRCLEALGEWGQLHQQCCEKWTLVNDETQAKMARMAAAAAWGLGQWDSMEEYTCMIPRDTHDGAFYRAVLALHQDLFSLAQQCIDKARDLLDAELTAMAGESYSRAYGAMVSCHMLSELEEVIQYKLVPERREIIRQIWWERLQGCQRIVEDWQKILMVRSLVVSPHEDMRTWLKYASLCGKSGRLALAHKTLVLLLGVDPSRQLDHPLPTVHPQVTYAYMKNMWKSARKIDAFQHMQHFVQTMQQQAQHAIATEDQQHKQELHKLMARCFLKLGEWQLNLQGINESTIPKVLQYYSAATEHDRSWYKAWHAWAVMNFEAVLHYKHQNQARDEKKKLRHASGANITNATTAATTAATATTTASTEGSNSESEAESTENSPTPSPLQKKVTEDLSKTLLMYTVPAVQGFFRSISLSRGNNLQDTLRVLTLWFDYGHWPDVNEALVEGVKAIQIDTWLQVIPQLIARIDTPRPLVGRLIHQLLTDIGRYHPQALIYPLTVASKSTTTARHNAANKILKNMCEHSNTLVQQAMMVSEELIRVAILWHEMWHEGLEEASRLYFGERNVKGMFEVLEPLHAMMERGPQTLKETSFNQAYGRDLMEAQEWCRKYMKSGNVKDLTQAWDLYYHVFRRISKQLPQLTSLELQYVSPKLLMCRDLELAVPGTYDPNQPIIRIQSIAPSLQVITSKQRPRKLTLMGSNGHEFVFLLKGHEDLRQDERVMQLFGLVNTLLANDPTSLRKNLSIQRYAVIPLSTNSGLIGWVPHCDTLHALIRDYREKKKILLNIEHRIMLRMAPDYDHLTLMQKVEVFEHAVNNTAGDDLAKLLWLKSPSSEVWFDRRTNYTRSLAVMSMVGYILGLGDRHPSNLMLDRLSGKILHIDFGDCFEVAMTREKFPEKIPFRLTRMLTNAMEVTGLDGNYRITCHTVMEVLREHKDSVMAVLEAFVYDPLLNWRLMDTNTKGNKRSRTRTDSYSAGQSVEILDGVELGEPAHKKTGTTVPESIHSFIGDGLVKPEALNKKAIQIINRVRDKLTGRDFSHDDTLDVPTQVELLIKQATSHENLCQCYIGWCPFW
Procedure: The biochemical mTOR assay was carried out by the method described in the Millipore mTOR assay kit (catalogue number 14-770).

Sequence of PI3Kalpha (P42336 whole entry): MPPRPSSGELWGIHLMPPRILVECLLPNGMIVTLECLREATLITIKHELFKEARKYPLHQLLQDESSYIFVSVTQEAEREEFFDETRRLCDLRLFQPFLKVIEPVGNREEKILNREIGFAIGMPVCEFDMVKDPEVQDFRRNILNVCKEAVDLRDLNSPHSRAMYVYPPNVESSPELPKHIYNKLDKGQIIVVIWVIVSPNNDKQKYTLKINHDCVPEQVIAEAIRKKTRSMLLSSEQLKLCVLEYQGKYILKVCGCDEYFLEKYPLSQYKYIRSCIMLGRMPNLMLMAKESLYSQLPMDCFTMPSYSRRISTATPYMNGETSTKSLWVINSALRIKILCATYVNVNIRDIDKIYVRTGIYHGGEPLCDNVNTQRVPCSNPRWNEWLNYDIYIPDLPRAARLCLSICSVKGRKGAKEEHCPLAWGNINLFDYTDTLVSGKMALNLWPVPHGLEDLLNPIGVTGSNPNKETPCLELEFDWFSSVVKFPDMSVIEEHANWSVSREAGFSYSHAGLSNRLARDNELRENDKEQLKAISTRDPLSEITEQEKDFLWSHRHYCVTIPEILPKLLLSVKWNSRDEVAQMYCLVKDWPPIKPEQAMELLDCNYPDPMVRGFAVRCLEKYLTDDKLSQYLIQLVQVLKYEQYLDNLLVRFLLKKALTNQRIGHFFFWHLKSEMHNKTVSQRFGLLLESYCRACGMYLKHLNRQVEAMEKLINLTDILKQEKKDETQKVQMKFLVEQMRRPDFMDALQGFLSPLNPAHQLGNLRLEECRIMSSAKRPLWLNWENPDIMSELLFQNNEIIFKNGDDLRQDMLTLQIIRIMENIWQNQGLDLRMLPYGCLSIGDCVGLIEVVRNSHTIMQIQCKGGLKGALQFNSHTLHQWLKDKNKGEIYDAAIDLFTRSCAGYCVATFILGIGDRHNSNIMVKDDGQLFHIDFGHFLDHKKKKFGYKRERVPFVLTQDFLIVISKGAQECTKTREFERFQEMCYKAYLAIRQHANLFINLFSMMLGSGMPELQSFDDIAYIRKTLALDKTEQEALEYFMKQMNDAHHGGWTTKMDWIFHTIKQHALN
Sequence of PI3Kalpha (P27986 whole entry partner): as the sequence (P27986 whole entry partner) above

COc1cc(-c2ccnc(-c3cn(C)c(=O)n3-c3ccc(C(C)(C)C#N)cc3)c2)ccn1 [Example A6, 2-{4-[5-(2′-Methoxy-[4,4′]bipyridinyl-2-yl)-3-methyl-2-oxo-2,3-dihydroimidazol-1-yl]phenyl}-2-methylpropionitrile]
IC50 [1]: 100 to 10000 nM | IC50 [2]: 100 to 10000 nM | Kd [3]: 100 to 10000 nM | IC50 [4]: > 10000 nM | IC50 [5]: 100 to 10000 nM | melting point: 138 °C

Cn1cc(-c2cc(-c3cnc(N)c(C(F)(F)F)c3)ccn2)n(-c2ccc(C(C)(C)C#N)cc2)c1=O [Example A40, 2-{4-[5-(6-Amino-5-trifluoromethyl-[3,4′]bipyridinyl-2′-yl)-3-methyl-2-oxo-2,3-dihydroimidazol-1-yl]phenyl}-2-methylpropionitrile]
IC50 [1]: 0.1 to 100 nM | IC50 [2]: 0.1 to 100 nM | Kd [3]: 0.1 to 100 nM | IC50 [4]: 0.1 to 100 nM | IC50 [5]: 0.1 to 100 nM | melting point: 195 °C

Cn1cc(-c2cc(-c3ccc(N)nc3)ccn2)n(-c2ccc(C(C)(C)C#N)cc2)c1=O [Example A8, 2-{4-[5-(6-Amino-[3,4′]bipyridinyl-2′-yl)-3-methyl-2-oxo-2,3-dihydroimidazol-1-yl]phenyl}-2-methylpropionitrile]
IC50 [1]: 0.1 to 100 nM | IC50 [2]: 100 to 10000 nM | Kd [3]: 0.1 to 100 nM | IC50 [4]: 100 to 10000 nM | IC50 [5]: 100 to 10000 nM | melting point: 252 °C

Cn1cc(-c2cc(-c3cnc4c(c3)CCC(=O)N4)ccn2)n(-c2ccc(C(C)(C)C#N)cc2)c1=O [Example A45, 2-Methyl-2-(4-{3-methyl-2-oxo-5-[4-(7-oxo-5,6,7,8-tetrahydro-[1,8]naphthyridin-3-yl)pyridin-2-yl]-2,3-dihydroimidazol-1-yl}phenyl)propionitrile]
IC50 [1]: 0.1 to 100 nM | IC50 [2]: 100 to 10000 nM | IC50 [4]: 100 to 10000 nM | IC50 [5]: 0.1 to 100 nM | melting point: 284 °C

CC(=O)N1CCN(c2ccc(-n3c(-c4cc(-c5cnc6[nH]ccc6c5)ccn4)cn(C)c3=O)cc2C(F)(F)F)CC1 [Example A72, 3-[4-(4-Acetylpiperazin-1-yl)-3-trifluoromethylphenyl]-1-methyl-4-[4-(1H-pyrrolo[2,3-b]pyridin-5-yl)pyridin-2-yl]-1,3-dihydroimidazol-2-one]
IC50 [1]: 100 to 10000 nM | IC50 [2]: 100 to 10000 nM | Kd [3]: 0.1 to 100 nM | IC50 [4]: 0.1 to 100 nM | IC50 [5]: 0.1 to 100 nM | IC50 [6]: 100 to 10000 nM

Cn1cc(-c2cc(-c3cnc4[nH]cc(F)c4c3)ccn2)n(-c2ccc(F)c(C(F)(F)F)c2)c1=O [Example A105, 4-[4-(3-Fluoro-1H-pyrrolo[2,3-b]pyridin-5-yl)pyridin-2-yl]-3-(4-fluoro-3-trifluoro-methylphenyl)-1-methyl-1,3-dihydroimidazol-2-one]
IC50 [4]: 100 to 10000 nM | IC50 [5]: 100 to 10000 nM | melting point: 268 °C

CN1CCN(c2ccc(-n3c(-c4cc(-c5cnc6[nH]ccc6c5)ccn4)cn(C)c3=O)cc2)CC1 [Example A50, 1-Methyl-3-[4-(4-methylpiperazin-1-yl)phenyl]-4-[4-(1H-pyrrolo[2,3-b]pyridin-5-yl)pyridin-2-yl]-1,3-dihydroimidazol-2-one]
IC50 [1]: 100 to 10000 nM | IC50 [2]: 100 to 10000 nM | Kd [3]: 0.1 to 100 nM | IC50 [4]: 100 to 10000 nM | IC50 [5]: 0.1 to 100 nM | IC50 [6]: 100 to 10000 nM

Cn1cc(-c2cc(-c3cnc4[nH]ccc4c3)ccn2)n(-c2cc(F)cc(C#N)c2)c1=O [Example A96, 3-Fluoro-5-{3-methyl-2-oxo-5-[4-(1H-pyrrolo[2,3-b]pyridin-5-yl)pyridin-2-yl]-2,3-dihydroimidazol-1-yl}benzonitrile]
IC50 [1]: 100 to 10000 nM | IC50 [2]: 100 to 10000 nM | Kd [3]: 100 to 10000 nM | IC50 [4]: 100 to 10000 nM | IC50 [5]: 0.1 to 100 nM | IC50 [6]: 100 to 10000 nM

Cn1cc(-c2cc(-c3ccnc4[nH]ccc34)ccn2)n(-c2ccc(C(C)(C)C#N)cc2)c1=O [Example A23, 2-Methyl-2-(4-{3-methyl-2-oxo-5-[4-(1H-pyrrolo[2,3-b]pyridin-4-yl)pyridin-2-yl]-2,3-dihydroimidazol-1-yl}phenyl)propionitrile]
IC50 [1]: 100 to 10000 nM | IC50 [2]: > 10000 nM | Kd [3]: 100 to 10000 nM | IC50 [4]: 100 to 10000 nM | IC50 [5]: 0.1 to 100 nM | IC50 [6]: 100 to 10000 nM

Cn1cc(-c2cc(-c3ccc(N)cc3)ccn2)n(-c2ccc(N3CCNCC3)c(C(F)(F)F)c2)c1=O [Example A60, 4-[4-(4-Aminophenyl)pyridin-2-yl]-1-methyl-3-(4-piperazin-1-yl-3-trifluoromethyl-phenyl)-1,3-dihydroimidazol-2-one]
IC50 [1]: 100 to 10000 nM | IC50 [2]: > 10000 nM | Kd [3]: 100 to 10000 nM | IC50 [4]: 100 to 10000 nM | IC50 [5]: 0.1 to 100 nM | IC50 [6]: > 10000 nM

Cn1cc(-c2cc(-c3ccc(N)c(C(F)(F)F)c3)ccn2)n(-c2ccc(C(C)(C)C#N)cc2)c1=O [Example A93, 2-(4-{5-[4-(4-Amino-3-trifluoromethylphenyl)pyridin-2-yl]-3-methyl-2-oxo-2,3-dihydroimidazol-1-yl}phenyl)-2-methylpropionitrile]
IC50 [1]: 100 to 10000 nM | IC50 [2]: 100 to 10000 nM | Kd [3]: 0.1 to 100 nM | IC50 [4]: 100 to 10000 nM | IC50 [5]: 0.1 to 100 nM | IC50 [6]: 100 to 10000 nM

Cn1cc(-c2cc(-c3cnc4ccccc4c3)ccn2)n(-c2ccc(C(C)(C)C(=O)O)cc2)c1=O [Example A22, 2-Methyl-2-{4-[3-methyl-2-oxo-5-(4-quinolin-3-ylpyridin-2-yl)-2,3-dihydroimidazol-1-yl]phenyl}propionic acid]
IC50 [1]: 100 to 10000 nM | IC50 [2]: > 10000 nM | Kd [3]: 100 to 10000 nM | IC50 [4]: > 10000 nM | IC50 [5]: 100 to 10000 nM | IC50 [6]: 100 to 10000 nM

Cn1cc(-c2cc(-c3cnc4[nH]c(C(C)(C)C)cc4c3)ccn2)n(-c2ccc(C(C)(C)C#N)cc2)c1=O [Example A92, 2-(4-{5-[4-(2-tert-Butyl-1H-pyrrolo[2,3-b]pyridin-5-yl)pyridin-2-yl]-3-methyl-2-oxo-2,3-dihydroimidazol-1-yl}phenyl)-2-methylpropionitrile]
IC50 [1]: 100 to 10000 nM | IC50 [2]: 100 to 10000 nM | Kd [3]: 100 to 10000 nM | IC50 [4]: > 10000 nM | IC50 [5]: 0.1 to 100 nM | IC50 [6]: 100 to 10000 nM

CN1CCN(c2ccc(-n3c(-c4cc(-c5cnc6[nH]c(C(F)(F)F)cc6c5)ccn4)cn(C)c3=O)cc2C(F)(F)F)CC1 [Example A87, 1-Methyl-3-[4-(4-methylpiperazin-1-yl)-3-trifluoromethylphenyl]-4-[4-(2-trifluoro-methyl-1H-pyrrolo[2,3-b]pyridin-5-yl)pyridin-2-yl]-1,3-dihydroimidazol-2-one]
IC50 [1]: 100 to 10000 nM | IC50 [2]: 100 to 10000 nM | Kd [3]: 100 to 10000 nM | IC50 [4]: 100 to 10000 nM | IC50 [5]: 0.1 to 100 nM | IC50 [6]: 100 to 10000 nM

Cn1cc(-c2cc(-c3cnc4[nH]ncc4c3)ccn2)n(-c2cccc(C#N)c2)c1=O [Example A63, 3-{3-Methyl-2-oxo-5-[4-(1H-pyrazolo[3,4-b]pyridin-5-yl)pyridin-2-yl]-2,3-dihydro-imidazol-1-yl}benzonitrile]
IC50 [1]: 0.1 to 100 nM | IC50 [2]: 100 to 10000 nM | Kd [3]: 0.1 to 100 nM | IC50 [4]: 100 to 10000 nM | IC50 [5]: 0.1 to 100 nM | IC50 [6]: 0.1 to 100 nM

CN1CCN(c2ccc(-n3c(-c4cc(-c5cnc6[nH]c(C(C)(C)C)cc6c5)ccn4)cn(C)c3=O)cc2C(F)(F)F)CC1 [Example A86, 4-[4-(2-tert-Butyl-1H-pyrrolo[2,3-b]pyridin-5-yl)pyridin-2-yl]-1-methyl-3-[4-(4-methylpiperazin-1-yl)-3-trifluoromethylphenyl]-1,3-dihydroimidazol-2-one]
IC50 [1]: 100 to 10000 nM | IC50 [2]: 100 to 10000 nM | Kd [3]: 100 to 10000 nM | IC50 [4]: 100 to 10000 nM | IC50 [5]: 0.1 to 100 nM | IC50 [6]: 100 to 10000 nM

CCn1cc(-c2cc(-c3cnc4[nH]ccc4c3)ccn2)n(-c2ccc(C(C)(C)C#N)cc2)c1=O [Example A24, 2-(4-{3-Ethyl-2-oxo-5-[4-(1H-pyrrolo[2,3-b]pyridin-5-yl)pyridin-2-yl]-2,3-dihydro-imidazol-1-yl}phenyl)-2-methylpropionitrile]
IC50 [1]: 100 to 10000 nM | IC50 [2]: 100 to 10000 nM | Kd [3]: 0.1 to 100 nM | IC50 [4]: 100 to 10000 nM | IC50 [5]: 0.1 to 100 nM | IC50 [6]: 0.1 to 100 nM

Cn1cc(-c2cc(-c3ccncc3)ccn2)n(-c2ccc(C(C)(C)C#N)cc2)c1=O [Example A11, 2-[4-(5-[4,4′]Bipyridinyl-2-yl-3-methyl-2-oxo-2,3-dihydroimidazol-1-yl)phenyl]-2-methylpropionitrile]
IC50 [1]: 100 to 10000 nM | IC50 [2]: > 10000 nM | IC50 [4]: > 10000 nM | IC50 [5]: 0.1 to 100 nM | melting point: 226 °C

Cn1cc(-c2cc(-c3cnc4ccccc4c3)ccn2)n(-c2ccc(C(C)(C)CN)cc2)c1=O [Example A30, 3-[4-(2-Amino-1,1-dimethylethyl)phenyl]-1-methyl-4-(4-quinolin-3-ylpyridin-2-yl)-1,3-dihydroimidazol-2-one]
IC50 [1]: 100 to 10000 nM | IC50 [2]: > 10000 nM | IC50 [4]: > 10000 nM | IC50 [5]: 100 to 10000 nM | melting point: 132 °C
